{
  "source": "patent US9182385B2",
  "about": "“Methods for diagnosis, prognosis and methods of treatment” (NODALITY, INC., priority 2007, dated 2015)",
  "key": {"[1]": {"system": "blood B cells from healthy donors", "method": "BCR cross-linking and preparation for staining: Cells were thawed at 37° C. in a water bath until partially thawed (˜50%). Cells were thawed into 5% FBS/RPMI at room temperature. The cell suspension was added drop-wise into media. Cells were centrifuged at 900 RPM for 10 minutes with no brake. The supernatants were decanted and pellets resuspended in 25 milliliters (ml) of media. Cells were re-centrifuged at 900 RPM for 10 minutes, decanted again and resuspended in 5 ml of 1% FBS/RPMI. Cells were counted with a hemocytometer using trypan blue staining. The concentration of the cells was adjusted as necessary to reduce crowding. Cells were incubated at 37° C. for 2 hours. The final cell concentration, including additives and reagents (e.g. stimulant, Fab fragment, H2O2, aqua, etc.) was 1.6 million/ml. Cells were aliquoted into wells. […]\nAnalysis by Flow Cytometry: Between 10,000 and 100,000 un-gated events were collected for each sample on the BD LSR II flow cytometry machine. The fluorescent anti-bodies directed to extra-cellular markers (i.e. CD3, CD4, CD8, CD5 and CD20) were used to mark the cells and a hierarchical gating strategy was used to identify the B-Cells and mature B-Cell population among the recorded events as described below: • a. […] All the recorded events were also marked by the following intra-cellular markers p-Erk, p-Syk/Zap70, and p-BLNK. […]"}, "CLL cells": {"system": "CLL cells", "assay": "Phospho-specific multiparametric flow cytometry of BCR signaling in CLL patient samples", "format": "cell-based, human", "experimental": "(§1) Ramos cells were maintained and cultured using methods known in the art. Cells from CLL patients were obtained using methods known in the art.\n(§2) The cell suspension was added drop-wise into media. […] Cells were incubated at 37° C. for 2 hours. […] Cells were aliquoted into wells.\n(§3) Cells were washed twice. […] Cocktail • (i) CD3 pac blue=160 μl • (ii) CD4 APC=80 μl • (iii) CD8 PE Cy7=80 μl • (iv) CD5 PE Cy5=400 μl • (v) CD20 PerCP Cy5.5=800 μl • (vi) p-Erk=800 μl • (vii) p-BLNK=800 μl • (viii) p-Syk/ZAP70=800 μl • b. […] Each well received 100 μl of this cocktail mix.\nCells were prepared and stained as described above."}, "Ramos cells": {"system": "Ramos cells", "assay": "Phospho-specific multiparametric flow cytometry of BCR signaling in Ramos cells", "format": "cell-based", "conditions": "FIG. 1, fluorescence above autofluorescence and background", "experimental": "as §1, §2, §3"}, "[2]": {"conditions": "CD20+/CD5+ cell population of CLL samples, kinetics"}},
  "data": [
    {"smiles": "OO", "note": "[H2O2, hydrogen peroxide]", "values": [
      {"measurement": "phosphorylation of p72SYK/p70ZAP, ERK1/2, BLNK, PLCγ2", "setting": "[1]; blood B cells from healthy donors", "result": "failed to elicit a substantial increase"},
      {"measurement": "activation of signaling post BCR", "setting": "[1]; normal B cells, H2O2 by itself, FIG. 7", "result": "incapable of activating post BCR by itself"},
      {"measurement": "PLCγ2 phosphorylation", "setting": "CLL cells; [2]", "result": "increased"},
      {"measurement": "phosphorylation of rpS6", "setting": "CLL cells; [2]", "result": "attenuates"},
      {"measurement": "levels of phosphorylated p72SYK/p70ZAP, ERK1/2, BLNK, and PLCγ2", "setting": "CLL cells; CLL cells of some patients, independent of surface F(ab)2anti-μ ligation", "result": "induced high-levels"},
      {"measurement": "activation of Erk and Syk", "setting": "CLL cells; CLL samples, inhibition of phosphatases, FIG. 6", "result": "activates"},
      {"measurement": "tonic BCR signaling revealed by inhibition of phosphatases", "setting": "CLL cells; other CLL samples, FIG. 10", "result": "does not reveal strong tonic BCR signaling"},
      {"measurement": "responsiveness (phosphorylated p72SYK/p70ZAP, ERK1/2, BLNK, PLCγ2)", "setting": "CLL cells; other CLL-B cells, even in the presence of F(ab)2anti-μ", "result": "significantly less responsive"}
    ]},
    {"smiles": "CCCCCCCCCCCCCC(=O)O[C@@H]1[C@@H](C)[C@@]2(O)[C@@H](C=C(CO)C[C@]3(O)C(=O)C(C)=C[C@@H]23)[C@@H]2C(C)(C)[C@]12OC(C)=O", "note": "[PMA]", "values": [
      {"measurement": "activation of p-Erk and p-Syk/pZap70", "setting": "Ramos cells", "result": "activates"},
      {"measurement": "activation of p-Erk across patients", "setting": "CLL cells; CLL patient samples, regardless of ZAP70 expression (summary)", "result": "comparable in all patients"},
      {"measurement": "p-Erk and p-Syk phosphorylation", "setting": "CLL cells; CLL samples with low and high frequency of ZAP70, FIG. 5", "result": "modest"},
      {"measurement": "Erk and Syk phosphorylation", "setting": "CLL cells; other CLL samples, FIG. 9", "result": "modest"},
      {"measurement": "activation of Erk", "setting": "CLL cells; pheresed CLL samples, FIG. 3", "result": "activates"}
    ]}
  ]
}
